Where two headings read alike, the source gives them in different places.
Columns and labels:
TNF-α production [1] = experiment: ELISA for TNF-α production by LPS stimulated human monocytes; type: cell-based; settings: Concentration of compound which inhibited the product of TNFα by 50% of control, read-out: TNFαIC50
Description: Peripheral blood mononuclear cells were isolated from normal human blood on Hypaque-Ficoll density gradients. A portion of the isolated cells were further purified by adherence to gelatin coated flasks.
100 μl aliquots of monocytes were placed onto 96 well microtiter plates at a density of 5×10^5 cells/ml in RPMI-1640 medium containing 10% fetal bovine serum. After incubation for 24 hrs., various concentrations of the test compounds (FIG. 5) were added to the plated cells in a volume of 100 μl and incubated for 1 hr. After incubation, 1 μg/ml of LPS was added to each well.
18 hrs. after exposure of the plated cells to LPS, 100 μl of medium was collected from each well and assayed (by ELISA) for release of TNF-α, using recombinant human TNF as a standard. The sensitivity of the assay ranged from 10-100 pg/ml.

TNF-α production [2] = experiment: LPS induced TNF-α production by human macrophages; type: cell-based; settings: 0.1-1000 μM; result in words
Description: Human macrophages were cultured in 96 well microtiter plates and incubated with LPS. μAliquots of the stimulated cells were then incubated with, respectively, 0.1, 1, 10, 100 or 1000 μM of 1I-49, compound 37 and a commercially available isoquinoline (6,7-dimethoxy-1(2H)-isoquinoline from μAldrich Chemical; labelled S52-626-6 in FIG. 10) which, like the compounds of the invention, has an oxygen ortho to a ring nitrogen but, unlike the compounds of the invention, lacks a side chain substituent as described above (1L-49 is representative of the isoquinolone compounds of the invention having the side chain substituents described elsewhere above). The inhibitory efficacy of each compound was measured as a function of TNF-α reduction in μg/ml.

Work on `CCCn1c(=O)n(CCCC(=O)OCC)c(=O)c2c1ncn2C` [Compound 31, ethyl 4-(2,3,6,7-tetrahydro-2,6-dioxo-7-methyl-3-n-propyl-1H-purin-1-yl)butonoic acid] yielded an IC50 (TNF-α production [1]) of 5 µM.

In the case of `COc1cc2cc[nH]c(=O)c2cc1OC` [S52, 626-6, 6,7-dimethoxy-1(2H)-isoquinoline], the “inhibition of LPS induced TNF-α production” value (TNF-α production [2]) is reported as “mild inhibitory activity”.

Work on `CCOC(=O)CCCn1c(=O)c2ccccc2n(C)c1=O` [Compound 52, Ethyl 1-Methyl-1,4-dihydro-2,4-dioxo-3(2H)-quinazolinebutanoate] yielded an IC50 (TNF-α production [1]; Monocyte) of 55 µM.

`Cn1c(=O)[nH]c(=O)c2[nH]c(S)nc21` [Compound 25, 3-Methyl-8-thiouric Acid] showed an IC50 (TNF-α production [1]; Monocyte) of over 200 µM and a melting point of over 320 °C.

In the case of `CCCCCCn1c(=O)c2[nH]c(=O)[nH]c2n(C)c1=O` [Compound 24, 1-n-Hexyl-3-methyluric Acid], the IC50 (TNF-α production [1]; Monocyte) is reported as 50 µM and the melting point is reported as > 295 °C (dec.).
